{"source": "patent US7582662B2", "about": "“Body weight gain inhibitor” (Takeda Pharmaceutical Company Limited, priority 2002, dated 2009)", "key": {"[1]": {"assay": "Body weight gain induced by PPARγ agonist-like substance (pioglitazone) in obesity rats", "assay_type": "in vivo, male Wistar fatty rats", "settings": "Wistar fatty rats, 7 days", "method": "Effect of Compound a on Body Weight Gain Induced by PPARγ Agonist-Like Substance (Pioglitazone) As the obesity rats, male Wistar fatty rats (16 week old) were used. The body weights were measured and the rats were grouped, after which a suspension of a drug in 0.5% methylcellulose solution was repeatedly and forcibly administered orally once a day for 7 consecutive days. After 24 hr from the final administration, the body weight was measured and the body weight gain was calculated. […] For the analysis of significance, Student's t-test was used. • 2) Results"}, "[2]": {"assay": "Body weight gain of obese mouse (compound A-mixed feed, 4 days)", "assay_type": "in vivo, male KKA^y mice", "settings": "KKA^y mice, 10 week old, 0.005% compound A-mixed feed (about 6.5 mg/kg/day), mean±standard error, control 1.2±0.2 g, p<0.05", "method": "Effect of 2-ethoxy-1-[[2′-(2,5-dihydro-5-oxo-1,2,4-oxadiazole-3-yl)biphenyl-4-yl]methyl]benzimidazole-7-carboxylic acid (Compound A) on Body Weight Gain of Obese Mouse\nAs the obese mouse, male KKA^y mice (10 week old) were used. The mice were grouped by measuring the body weight, and feeding of a CE-2 powdered feed (control)(n=7) and a 0.005% compound A-mixed feed (n=7) was started. At 4 days from feeding, the body weight was measured and the amount of the body weight gain was calculated. As the normal control, C57BL mice were used, and after feeding a CE-2 powdered feed for 4 days, whether the male KKA^y mice of the same age became obese was also examined.\nThe results are shown in mean±standard error. For the analysis of significance, Student's t-test was used. • 2) Results"}, "[3]": {"settings": "patients with type II diabetes; Diabetes, 47, suppl. 1, A18, No. 69, 1998; cited from earlier work"}}, "note": "Structures can show the parent of a compound that is named as a salt.", "data": [{"smiles": "CCOc1nc2cccc(C(=O)O)c2n1Cc1ccc(-c2ccccc2-c2nc(=O)o[nH]2)cc1", "note": "[compound A, 2-ethoxy-1-[[2′-(2,5-dihydro-5-oxo-1,2,4-oxadiazol-3-yl)biphenyl-4-yl]methyl]benzimidazole-7-carboxylic acid]", "values": [{"measurement": "amount of body weight gain", "setting": "[1]; compound A 1 mg/kg/day p.o. together with PPARγ agonist-like substance (pioglitazone hydrochloride) 0.5 mg/kg/day p.o., p<0.05 vs single administration group", "value": "19.3 ± 2.5", "unit": "g"}, {"measurement": "body weight gain during the test period", "setting": "[2]", "value": "0.1 ± 0.4", "unit": "g"}]}, {"smiles": "CCc1ccc(CCOc2ccc(CC3SC(=O)NC3=O)cc2)nc1", "note": "(stereo not shown) [pioglitazone hydrochloride]", "values": [{"measurement": "amount of body weight gain", "setting": "[1]; 0.5 mg/kg/day p.o. alone, mean±standard error, control 24.4±2.4 g, p<0.05", "value": "30.8 ± 1.8", "unit": "g"}]}, {"smiles": "Cc1c(C)c2c(c(C)c1O)CCC(C)(COc1ccc(CC3SC(=O)NC3=O)cc1)O2", "note": "(stereo not shown) [troglitazone]", "values": [{"measurement": "effect on body weight", "setting": "[3]", "value": "body weight gaining action"}]}]}
